Patent publication US20240174618A1, “SUBSTITUTED (2-HETEROARYLOXYPHENYL)SULFONATES, SALTS THEREOF AND THEIR USE AS HERBICIDAL AGENTS” (Bayer Aktiengesellschaft, priority 2021, published 2024)

Columns and labels:
Assay type in all cases: in vivo
[1] = system: Digitaria sanguinalis (DIGSA); test: A. Herbicidal pre-emergence efficacy, DIGSA; settings: scored visually after about 3 weeks vs untreated controls
Summary of the method: (§1)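 Applied before emergence onto covering soil at rates of 1280 g/ha or less, using 600 L/ha spray water with 0.5% additive. Scoring: visual % efficacy after ~3 weeks, greenhouse.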

[2] = system: Poa annua (POAAN); test: A. Herbicidal pre-emergence efficacy, POAAN
Summary of the method: as §1

[3] = system: Setaria viridis (SETVI); test: A. Herbicidal pre-emergence efficacy, SETVI
Summary of the method: as §1

[4] = system: Stellaria media (STEME); test: A. Herbicidal pre-emergence efficacy, STEME
Summary of the method: as §1

[5] = system: Amaranthus retroflexus (AMARE); test: A. Herbicidal pre-emergence efficacy, AMARE
Summary of the method: as §1

[6] = system: Abutilon theophrasti (ABUTH); test: B. Herbicidal post-emergence efficacy, ABUTH; settings: rated visually after about 3 weeks
Summary of the method: (§2)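 Post-emergence greenhouse test: one-leaf-stage plants, compound (WP/EC, +0.5% additive, 600 L/ha water, ≤1280 g/ha) applied to green parts; % efficacy scored visually vs untreated after ~3 wk; 100% = plants died.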

[7] = system: Echinochloa crus-galli (ECHCG); test: B. Herbicidal post-emergence efficacy, ECHCG; settings: rated visually after about 3 weeks
Summary of the method: as §2

[8] = system: Kochia scoparia (KCHSC); test: B. Herbicidal post-emergence efficacy, KCHSC; settings: 1280 g/ha
Summary of the method: as §2

[9] = system: Lolium rigidum (LOLRI); test: B. Herbicidal post-emergence efficacy, LOLRI; settings: 1280 g/ha
Method: Seeds of mono- and dicotyledonous weed plants were placed in plastic pots in sandy loam soil (doubly sown with in each case one species of mono- or dicotyledonous weed plants per pot), covered with soil and cultivated in a greenhouse under controlled growth conditions. 2 to 3 weeks after sowing, the test plants were treated at the one-leaf stage. The compounds of the invention, formulated in the form of wettable powders (WP) or as emulsion concentrates (EC), were applied onto the green parts of the plants as aqueous suspension or emulsion with addition of 0.5% additive at a water application rate of 600 liters per hectare (converted). After the test plants had been kept in the greenhouse under optimum growth conditions for about 3 weeks, the activity of the preparations was rated visually in comparison to untreated controls.
For example, • 100% efficacy=plants have died, • 0% efficacy=like untreated control plants
Tables B1a to B12c below show the effects of selected inventive compounds of the general formula (I) according to table 1 on various harmful plants at an application rate corresponding to 1280 g/ha or less, which were obtained by the experimental procedure mentioned above.

[10] = system: Poa annua (POAAN); test: B. Herbicidal post-emergence efficacy, POAAN
Summary of the method: as §2

[11] = system: Stellaria media (STEME); test: B. Herbicidal post-emergence efficacy, STEME
Summary of the method: as §2

[12] = system: Veronica persica (VERPE); test: B. Herbicidal post-emergence efficacy, VERPE
Summary of the method: as §2

[13] = system: Amaranthus retroflexus (AMARE); test: B. Herbicidal post-emergence efficacy, AMARE
Summary of the method: as §2

[14] = system: Abutilon theophrasti (ABUTH); test: C. Herbicidal pre-emergence efficacy, ABUTH; settings: scored after about 3 weeks
Text: (§3) Seeds of monocotyledonous and dicotyledonous weed plants and crop plants were placed in plastic or organic planting pots and covered with soil. The compounds of the invention, formulated in the form of wettable powders (WP) or as emulsion concentrates (EC), were then applied to the surface of the covering soil as aqueous suspension or emulsion with addition of 0.5% additive at a water application rate equivalent to 600 l/ha (converted). After the treatment, the pots were placed in a greenhouse and kept under good growth conditions for the test plants. After about 3 weeks, the efficacy of the preparations was scored visually in comparison with untreated controls as percentages. For example, • 100% efficacy=plants have died, • 0% efficacy=like untreated control plants.
(§4) Tables C1a to C14b below show the effects of selected compounds of the general formula (I) according to table 1 on various harmful plants at an application rate corresponding to 320 g/ha or less, which were obtained by the experimental procedure mentioned above.

[15] = system: Alopecurus myosuroides (ALOMY); test: C. Herbicidal pre-emergence efficacy, ALOMY; settings: 320 g/ha, scored after about 3 weeks
Text: as §3, §4

[16] = system: Amaranthus retroflexus (AMARE); test: C. Herbicidal pre-emergence efficacy, AMARE; settings: scored after about 3 weeks
Text: as §3, §4

[17] = system: Digitaria sanguinalis (DIGSA); test: C. Herbicidal pre-emergence efficacy, DIGSA; settings: 320 g/ha, scored after about 3 weeks
Text: as §3, §4

[18] = system: Echinochloa crus-galli (ECHCG); test: C. Herbicidal pre-emergence efficacy, ECHCG; settings: 320 g/ha, scored after about 3 weeks
Text: as §3, §4

[19] = system: Lolium rigidum (LOLRI); test: C. Herbicidal pre-emergence efficacy, LOLRI; settings: 320 g/ha, scored after about 3 weeks
Text: as §3, §4

[20] = system: Polygonum convolvulus (POLCO); test: C. Herbicidal pre-emergence efficacy, POLCO; settings: 320 g/ha, scored after about 3 weeks
Text: as §3, §4

[21] = system: Setaria viridis (SETVI); test: C. Herbicidal pre-emergence efficacy, SETVI; settings: 320 g/ha, scored after about 3 weeks
Text: as §3, §4

[22] = system: Veronica persica (VERPE); test: C. Herbicidal pre-emergence efficacy, VERPE; settings: 320 g/ha, scored after about 3 weeks
Text: as §3, §4

[23] = system: Viola tricolor (VIOTR); test: C. Herbicidal pre-emergence efficacy, VIOTR
Text: as §3, §4

[24] = system: Kochia scoparia (KCHSC); test: C. Herbicidal pre-emergence efficacy, KCHSC; settings: application rate 320 g/ha
Text: as §3, §4

[25] = system: Zea mays (ZEAMX); test: D. Pre-emergence effect on useful plants, ZEAMX; settings: useful plant, application rate 80 g/ha
Text: as §3
(§5) Tables D1a to D5b below show the effects of selected compounds of the general formula (I) according to table 1 on various useful plants at an application rate corresponding to 320 g/ha or less, which were obtained by the experimental procedure mentioned above.

[26] = system: Triticum aestivum (TRZAS); test: D. Pre-emergence effect on useful plants, TRZAS; settings: useful plant, application rate 80 g/ha
Text: as §3, §5

[27] = system: Glycine max (GLXMA); test: D. Pre-emergence effect on useful plants, GLXMA; settings: useful plant, application rate 80 g/ha
Text: as §3, §5

[28] = system: Abutilon theophrasti (ABUTH); test: E. Herbicidal post-emergence efficacy, ABUTH; settings: application rate 320 g/ha
Method: (§6) Seeds of monocotyledonous and dicotyledonous weeds and crop plants were placed in sandy loam in plastic or organic planting pots, covered with soil and cultivated in a greenhouse under controlled growth conditions. 2 to 3 weeks after sowing, the test plants were treated at the one-leaf stage. The compounds of the invention, formulated in the form of wettable powders (WP) or as emulsion concentrates (EC), were then sprayed onto the green parts of the plants as aqueous suspension or emulsion with addition of 0.5% additive at a water application rate of 600 l/ha (converted). After the test plants had been kept in the greenhouse under optimum growth conditions for about 3 weeks, the activity of the preparations was rated visually in comparison to untreated controls.
(§7) For example, • 100% efficacy=plants have died, • 0% action=like untreated control plants.
(§8) Tables E1a to E12b below show the effects of selected compounds of the general formula (I) according to table 1 on various harmful plants at an application rate corresponding to 320 g/ha or less, which were obtained by the experimental procedure mentioned above.

[29] = system: Amaranthus retroflexus (AMARE); test: E. Herbicidal post-emergence efficacy, AMARE
Method: as §6, §7, §8

[30] = system: Echinochloa crus-galli (ECHCG); test: E. Herbicidal post-emergence efficacy, ECHCG; settings: application rate 320 g/ha
Method: as §6, §7, §8

[31] = system: Pharbitis purpurea (PHBPU); test: E. Herbicidal post-emergence efficacy, PHBPU
Method: as §6, §7, §8

[32] = system: Polygonum convolvulus (POLCO); test: E. Herbicidal post-emergence efficacy, POLCO; settings: application rate 320 g/ha
Method: as §6, §7, §8

[33] = system: Setaria viridis (SETVI); test: E. Herbicidal post-emergence efficacy, SETVI; settings: application rate 320 g/ha
Method: as §6, §7, §8

[34] = system: Veronica persica (VERPE); test: E. Herbicidal post-emergence efficacy, VERPE
Method: as §6, §7, §8

[35] = system: Viola tricolor (VIOTR); test: E. Herbicidal post-emergence efficacy, VIOTR
Method: as §6, §7, §8

[36] = system: Kochia scoparia (KCHSC); test: E. Herbicidal post-emergence efficacy, KCHSC
Method: as §6, §7, §8

[37] = system: Zea mays (ZEAMX); test: F. Post-emergence effect on useful plants, ZEAMX; settings: useful plant, application rate 80 g/ha
Method: as §6, §7
(§9) Tables F1a to F4 below show the effects of selected compounds of the general formula (I) according to table 1 on various useful plants at an application rate corresponding to 320 g/ha or less, which were obtained by the experimental procedure mentioned above.

[38] = system: Triticum aestivum (TRZAS); test: F. Post-emergence effect on useful plants, TRZAS; settings: useful plant
Method: as §6, §7, §9

## Cc1cccc(Oc2ncc(Cl)cn2)c1OS(=O)(=O)CC1CC1(Cl)Cl (stereo not drawn) [Example I-76]
[1]; 320 g/ha
  Pre-emergence efficacy against DIGSA: 90%
[1]; 1280 g/ha
  Pre-emergence efficacy against DIGSA: 90%
[2]; dosage 320 g/ha
  Pre-emergence efficacy against POAAN: 90%
[2]; dosage 1280 g/ha
  Pre-emergence efficacy against POAAN: 90%
[3]; dosage 320 g/ha
  Pre-emergence efficacy against SETVI: 100%
[3]; dosage 1280 g/ha
  Pre-emergence efficacy against SETVI: 100%
[4]; dosage 80 g/ha
  Pre-emergence efficacy against STEME: 90%
[4]; dosage 320 g/ha
  Pre-emergence efficacy against STEME: 90%
[4]; dosage 1280 g/ha
  Pre-emergence efficacy against STEME: 100%
[5]; 320 g/ha
  Pre-emergence efficacy against AMARE in %: 90%
[5]; 1280 g/ha
  Pre-emergence efficacy against AMARE in %: 100%
[6]; 80 g/ha
  Post-emergence efficacy against ABUTH in %: 90%
[6]; 320 g/ha
  Post-emergence efficacy against ABUTH in %: 90%
[6]; 1280 g/ha
  Post-emergence efficacy against ABUTH in %: 100%
[7]; 320 g/ha
  Post-emergence efficacy against ECHCG in %: 90%
[7]; 1280 g/ha
  Post-emergence efficacy against ECHCG in %: 100%
[8]
  Post-emergence efficacy against KCHSC: 90%
[9]
  Post-emergence efficacy against LOLRI: 90%
[10]; 320 g/ha
  Post-emergence efficacy against POAAN: 90%
[10]; 1280 g/ha
  Post-emergence efficacy against POAAN: 100%
[11]; 80 g/ha
  Post-emergence efficacy against STEME: 90%
[11]; 320 g/ha
  Post-emergence efficacy against STEME: 100%
[11]; 1280 g/ha
  Post-emergence efficacy against STEME: 100%
[12]; 80 g/ha
  Post-emergence efficacy against VERPE: 90%
[12]; 320 g/ha
  Post-emergence efficacy against VERPE: 100%
[12]; 1280 g/ha
  Post-emergence efficacy against VERPE: 100%
[13]; 80 g/ha
  Post-emergence efficacy against AMARE: 90%
[13]; 320 g/ha
  Post-emergence efficacy against AMARE: 100%
[13]; 1280 g/ha
  Post-emergence efficacy against AMARE: 100%

## Cc1cccc(Oc2ncc(Cl)cn2)c1OS(=O)(=O)CCC(F)=C(F)F [Example I-71]
[14]; 80 g/ha
  Pre-emergence efficacy against ABUTH: 80%
[14]; 320 g/ha
  Pre-emergence efficacy against ABUTH: 100%
[15]
  Pre-emergence efficacy against ALOMY: 80%
[16]; 80 g/ha
  Pre-emergence efficacy against AMARE: 100%
[16]; 320 g/ha
  Pre-emergence efficacy against AMARE: 100%
[17]
  Pre-emergence efficacy against DIGSA: 100%
[18]
  Pre-emergence efficacy against ECHCG: 100%
[19]
  Pre-emergence efficacy against LOLRI: 80%
[20]
  Pre-emergence efficacy against POLCO: 100%
[21]
  Pre-emergence efficacy against SETVI: 100%
[22]
  Pre-emergence efficacy against VERPE: 90%
[23]; application rate 80 g/ha
  Pre-emergence efficacy against VIOTR in %: 100%
[23]; application rate 320 g/ha
  Pre-emergence efficacy against VIOTR in %: 100%
[24]
  Pre-emergence efficacy against KCHSC in %: 100%
[25]
  Pre-emergence efficacy against ZEAMX in %: 0%
[26]
  Pre-emergence efficacy against TRZAS in %: 0%
[27]
  Pre-emergence efficacy against GLXMA in %: 10%
[28]
  Post-emergence efficacy against ABUTH in %: 100%
[29]; application rate 80 g/ha
  Post-emergence efficacy against AMARE in %: 90%
[29]; application rate 320 g/ha
  Post-emergence efficacy against AMARE in %: 100%
[30]
  Post-emergence efficacy against ECHCG in %: 90%
[31]; application rate 80 g/ha
  Post-emergence efficacy against PHBPU in %: 80%
[31]; application rate 320 g/ha
  Post-emergence efficacy against PHBPU in %: 90%
[32]
  Post-emergence efficacy against POLCO in %: 100%
[33]
  Post-emergence efficacy against SETVI in %: 100%
[34]; application rate 80 g/ha
  Post-emergence efficacy against VERPE in %: 80%
[34]; application rate 320 g/ha
  Post-emergence efficacy against VERPE in %: 100%
[35]; application rate 80 g/ha
  Post-emergence efficacy against VIOTR in %: 90%
[35]; application rate 320 g/ha
  Post-emergence efficacy against VIOTR in %: 100%
[36]; application rate 80 g/ha
  Post-emergence efficacy against KCHSC in %: 100%
[36]; application rate 320 g/ha
  Post-emergence efficacy against KCHSC in %: 100%
[37]
  Post-emergence efficacy against ZEAMX in %: 0%
[38]; application rate 80 g/ha
  Post-emergence efficacy against TRZAS in %: 0%
[38]; application rate 320 g/ha
  Post-emergence efficacy against TRZAS in %: 0%
